Data set [1] in a line: Stability of the compound in DMEM medium with 10% fetal bovine serum assessed as parent compound remaining at 200 uM incubated upto 24 hrs by HLPC analysis. It is filed as ADME, cell-free. Conditions: cattle, read-out: Stability.
Data set [2] has as its system A-375. The data set can be described thus: Antiproliferative activity against human A-375 cells assessed as reduction in cell viability at 1.5625 to 50 uM after 24 hrs by MTT assay. It is filed as functional, cell-based. Conditions: dose 1.5625-50 µM.
Data set [3] deals with A-375. The data set can be described thus: Binding affinity to RACK1 in human A-375 cells at 10 uM preincubated for 4 hrs followed by irradiation with UV for 30 mins measured by Western blotting based pull-down assay. In kind it is cell-based. The settings on record: time 4.5 hrs.
The test system of data set [4] is A-375. The data set can be described thus: Inhibition of cell migration in human A-375 cells at measured after 24 hrs by phase contrast microscopy based wound healing assay. It is filed as functional. The settings on record: dose 0.5-2 µM.
Data set [5] relates to A-375. The data set can be described thus: Inhibition of cell invasion in human A-375 cells at measured after 24 hrs by crystal violet staining based imaging analysis. It is filed as functional. Conditions: dose 0.5-2 µM.
Data set [6] is described as follows: Drug degradation in DMEM medium with 10% fetal bovine serum assessed as compound hydrolysis at 200 uM incubated upto 24 hrs by HLPC analysis. The settings on record: cattle, read-out: Drug degradation. It is filed as ADME, cell-free.
Data set [7] has as its system A-375. The data set can be described thus: Binding affinity to RACK1 in human A-375 cells at 10 uM preincubated for 4 hrs in the presence of harringtonolide followed by irradiation with UV for 30 mins measured by Western blotting based pull-down assay. In kind it is cell-based. Conditions: time 4.5 hrs.
For data set [8], the system named is A-375. The data set can be described thus: Antiproliferative activity against human A-375 cells assessed as reduction in cell viability upto 50 uM after 24 hrs by MTT assay. The settings on record: dose microM <=50, time 24.0 hrs. It is filed as functional, cell-based.
For data set [9], the system named is A-375. The data set can be described thus: Binding affinity to RACK1 in human A-375 cells assessed as prevention of temperature dependent protein degradation at 10 uM preincubated for 60 mins at room temperature followed by heat treatment at 45 to 63 degree C for 5 mins measured by immunoblotting based cellular thermal shift assay. It is filed as cell-based.

Data set [10] has as its system A-375. The data set can be described thus: Antiproliferative activity against human A-375 cells assessed as reduction in cell viability after 24 hrs by MTT assay. In kind it is functional, cell-based. The settings on record: A-375, 24 h.
Data set [11] has as its system A-375. The data set can be described thus: Binding affinity to RACK1 in human A-375 cells assessed as prevention of pronase-mediated protein degradation at 5 to 20 uM preincubated for 60 mins followed by enzyme addition and measured after 25 mins by immunoblotting based DARTS assay. The settings on record: dose 5-20 µM, time 85.0 min. In kind it is cell-based.
For data set [12], the system named is A-375. The data set can be described thus: Inhibition of epithelial-mesenchymal transition in human A-375 cells assessed as downregulation of N-cadherin expression at 0.5 to 4 uM measured after 24 hrs by Western blotting analysis. It is filed as functional, cell-based. The settings on record: dose 0.5-4 µM.
In data set [13] the test system is A-375. The data set can be described thus: Inhibition of epithelial-mesenchymal transition in human A-375 cells assessed as downregulation of Snail expression at 0.5 to 4 uM measured after 24 hrs by Western blotting analysis. In kind it is functional, cell-based. Conditions: dose 0.5-4 µM.
Data set [14] relates to A-375. The data set can be described thus: Inhibition of epithelial-mesenchymal transition in human A-375 cells assessed as upregulation of E-cadherin expression at 0.5 to 4 uM measured after 24 hrs by Western blotting analysis. In kind it is functional, cell-based. Conditions: dose 0.5-4 µM.
Data set [15] deals with Focal adhesion kinase 1 (Homo sapiens) (UniProt Q05397). The data set can be described thus: Inhibition of FAK phosphorylation in human A-375 cells measured after 24 hrs by Western blotting analysis. It is filed as cell-based. The settings on record: dose 0.5-4 µM.
Chain of Focal adhesion kinase 1 (Homo sapiens) (Q05397 2-1052 limits assumed): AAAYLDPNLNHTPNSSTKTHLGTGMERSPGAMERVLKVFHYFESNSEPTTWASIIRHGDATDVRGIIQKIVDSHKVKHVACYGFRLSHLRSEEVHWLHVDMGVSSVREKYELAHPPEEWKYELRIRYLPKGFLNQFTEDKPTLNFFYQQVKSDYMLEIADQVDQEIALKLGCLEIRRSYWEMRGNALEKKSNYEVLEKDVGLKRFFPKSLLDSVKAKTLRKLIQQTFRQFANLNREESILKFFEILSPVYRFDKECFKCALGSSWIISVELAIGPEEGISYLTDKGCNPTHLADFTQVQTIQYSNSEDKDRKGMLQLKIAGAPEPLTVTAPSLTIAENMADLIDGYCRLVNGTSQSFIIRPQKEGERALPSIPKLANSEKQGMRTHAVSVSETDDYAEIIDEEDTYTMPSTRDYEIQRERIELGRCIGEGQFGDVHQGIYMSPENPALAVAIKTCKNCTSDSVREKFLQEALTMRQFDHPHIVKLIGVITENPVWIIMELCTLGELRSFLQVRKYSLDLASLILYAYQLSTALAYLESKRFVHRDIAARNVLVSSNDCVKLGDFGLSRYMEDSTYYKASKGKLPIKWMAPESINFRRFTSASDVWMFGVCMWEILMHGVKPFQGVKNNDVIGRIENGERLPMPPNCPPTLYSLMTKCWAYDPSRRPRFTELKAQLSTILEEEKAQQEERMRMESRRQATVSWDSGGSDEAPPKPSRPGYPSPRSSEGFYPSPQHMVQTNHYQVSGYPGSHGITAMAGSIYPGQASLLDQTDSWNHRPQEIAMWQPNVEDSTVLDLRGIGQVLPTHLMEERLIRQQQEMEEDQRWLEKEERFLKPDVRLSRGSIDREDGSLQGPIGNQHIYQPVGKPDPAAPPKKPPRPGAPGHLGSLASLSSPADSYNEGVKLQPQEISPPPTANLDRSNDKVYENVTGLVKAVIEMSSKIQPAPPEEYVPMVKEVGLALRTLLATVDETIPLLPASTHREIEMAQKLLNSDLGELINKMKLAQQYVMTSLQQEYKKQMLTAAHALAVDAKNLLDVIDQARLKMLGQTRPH
Data set [16] has the same target. The data set can be described thus: Inhibition of FAK in human A-375 cells assessed as reduction in Src activation at 0.5 to 4 uM measured after 24 hrs by Western blotting analysis. The settings on record: dose 0.5-4 µM. In kind it is cell-based.
For data set [17] the target is unchanged. The data set can be described thus: Inhibition of FAK in human A-375 cells assessed as reduction in STAT3 activation at 0.5 to 4 uM measured after 24 hrs by Western blotting analysis. Conditions: dose 0.5-4 µM. It is filed as cell-based.
For data set [18], the target named is Signal transducer and activator of transcription 3 (Homo sapiens) (UniProt P40763). The data set can be described thus: Inhibition of STAT3 in human A-375 cells assessed as decrease in Bcl2 protein level at 0.5 to 4 uM measured after 24 hrs by western blot analysis. It is filed as cell-based. The settings on record: dose 0.5-4 µM.
Chain of Signal transducer and activator of transcription 3 (Homo sapiens) (P40763 whole entry): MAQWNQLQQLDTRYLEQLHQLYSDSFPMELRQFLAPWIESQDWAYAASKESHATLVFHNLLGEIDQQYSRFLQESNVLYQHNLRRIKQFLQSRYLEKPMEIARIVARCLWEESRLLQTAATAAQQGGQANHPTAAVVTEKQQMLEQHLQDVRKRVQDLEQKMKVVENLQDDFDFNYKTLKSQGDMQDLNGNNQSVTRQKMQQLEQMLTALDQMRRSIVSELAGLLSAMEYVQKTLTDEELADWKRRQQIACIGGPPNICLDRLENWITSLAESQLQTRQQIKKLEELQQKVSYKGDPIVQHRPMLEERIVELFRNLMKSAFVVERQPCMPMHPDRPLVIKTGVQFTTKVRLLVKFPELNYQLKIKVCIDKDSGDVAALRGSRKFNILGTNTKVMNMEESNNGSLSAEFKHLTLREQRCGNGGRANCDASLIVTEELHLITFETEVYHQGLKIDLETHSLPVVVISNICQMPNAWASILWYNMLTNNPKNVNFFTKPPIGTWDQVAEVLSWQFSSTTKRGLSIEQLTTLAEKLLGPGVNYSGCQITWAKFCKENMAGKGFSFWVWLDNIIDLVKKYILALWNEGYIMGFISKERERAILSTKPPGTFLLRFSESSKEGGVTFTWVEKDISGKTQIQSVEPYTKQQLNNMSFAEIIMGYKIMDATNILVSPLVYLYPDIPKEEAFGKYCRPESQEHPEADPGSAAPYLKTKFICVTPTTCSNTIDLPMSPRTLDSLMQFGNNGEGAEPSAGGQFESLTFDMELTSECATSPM
Data set [19] has the same target. The data set can be described thus: Inhibition of STAT3 in human A-375 cells assessed as decrease in c-Myc protein level at 0.5 to 4 uM measured after 24 hrs by western blot analysis. Conditions: dose 0.5-4 µM. In kind it is cell-based.
Data set [20] deals with A-375. The data set can be described thus: Inhibition of RACK1-FAK protein-protein interaction in human A-375 cells measured after 24 hrs by co-immunoprecipitation assay. In kind it is cell-based. The settings on record: dose 2-4 µM.

Calls of active or inactive are those of the source. No cut-off for these calls is given here.

In the case of `Cc1cc(=O)cc2c3c1[C@@H]1O[C@H]4[C@@H]5OC(=O)[C@](C[C@@H]2OC(=O)COCCOCCNC(=O)CCCC[C@@H]2SC[C@@H]6NC(=O)N[C@@H]62)([C@@H]4C)[C@H]3[C@@H]51`, in data set [1], the remaining at 24 h, 200 µM came to 59.2%. Also, the outcome with A-375 [2] was Active.

Take `C#CCCC1(CCC(=O)O[C@H]2C[C@]34C(=O)O[C@H]5[C@H](O[C@H]6c7c(C)cc(=O)cc2c7[C@@H]3[C@@H]56)[C@H]4C)N=N1`: the result in the data set with A-375 [3] and in the data set with A-375 [2] was Active. Moreover, the inhibition entry in the data set on A-375 [4] and in the data set on A-375 [5] was “Dose-Dependent Effect” in each case. In addition, the degraded at 24 h, 200 µM in data set [6] was found to be 13.6%. The outcome in the data set with A-375 [7] was inactive.

For `Cc1cc(=O)cc2c3c1[C@@H]1O[C@H]4[C@@H]5OC(=O)[C@](C[C@@H]2OC(=O)COCCOCCOCCOCCNC(=O)CCCC[C@@H]2SC[C@@H]6NC(=O)N[C@@H]62)([C@@H]4C)[C@H]3[C@@H]51`, in the data set with A-375 [8], the result was inactive.

`Cc1cc(=O)cc2c3c1[C@@H]1O[C@H]4[C@@H]5OC(=O)[C@](CC2)([C@@H]4C)[C@H]3[C@@H]51` [HAINANOLIDE]: the outcome in the data set on A-375 [9] and in the data set on A-375 [11] was Active. In the data set on A-375 [10], the IC50 worked out at 39.7 µM. Further, the inhibition result (with A-375 [4]; with A-375 [5]; in data set [15]; in the data set with A-375 [20]) was “Dose-Dependent Effect” in each case. The inhibition entry (in the data set with A-375 [12]; in the data set with A-375 [13]; with A-375 [14]; in [16]; in [17]; in data set [18]) was “Active” throughout. For the same compound, the inhibition result in data set [19] is “Active”.

Values taken from ChEMBL document CHEMBL5046311, “Photoaffinity Probe Reveals the Potential Target of Harringtonolide for Cancer Cell Migration Inhibition” (ACS Med Chem Lett, 2022).
